Assay results from patent US11612606B2, “8-aminoisoquinoline compounds and uses thereof” (priority 2018, dated 2023).
pKi: −log10 of the molar value. Where a name gives a salt, the structure may show the parent alone.

Molecular target: HPK full length, T165E S171E (Homo sapiens (Human), UniProt Q92918, S171E/T165E)
Assay: HPK1-FL HTRF enzymatic assay ("HTRF")
Format: biochemical
Conditions: ATP 1 mM, read-out: HPK1 Ki
Procedure, shortened: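 HTRF detection of phosphorylated biotin-SLP-76 used Eu-anti-pSLP76 antibody and SA-XL665, read after 60 min. The kinase reaction ran 60 min at […], following a 30-min compound preincubation with the full-length enzyme.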

HPK full length, T165E S171E, sequence (Q92918 whole entry T165E/S171E, looked up): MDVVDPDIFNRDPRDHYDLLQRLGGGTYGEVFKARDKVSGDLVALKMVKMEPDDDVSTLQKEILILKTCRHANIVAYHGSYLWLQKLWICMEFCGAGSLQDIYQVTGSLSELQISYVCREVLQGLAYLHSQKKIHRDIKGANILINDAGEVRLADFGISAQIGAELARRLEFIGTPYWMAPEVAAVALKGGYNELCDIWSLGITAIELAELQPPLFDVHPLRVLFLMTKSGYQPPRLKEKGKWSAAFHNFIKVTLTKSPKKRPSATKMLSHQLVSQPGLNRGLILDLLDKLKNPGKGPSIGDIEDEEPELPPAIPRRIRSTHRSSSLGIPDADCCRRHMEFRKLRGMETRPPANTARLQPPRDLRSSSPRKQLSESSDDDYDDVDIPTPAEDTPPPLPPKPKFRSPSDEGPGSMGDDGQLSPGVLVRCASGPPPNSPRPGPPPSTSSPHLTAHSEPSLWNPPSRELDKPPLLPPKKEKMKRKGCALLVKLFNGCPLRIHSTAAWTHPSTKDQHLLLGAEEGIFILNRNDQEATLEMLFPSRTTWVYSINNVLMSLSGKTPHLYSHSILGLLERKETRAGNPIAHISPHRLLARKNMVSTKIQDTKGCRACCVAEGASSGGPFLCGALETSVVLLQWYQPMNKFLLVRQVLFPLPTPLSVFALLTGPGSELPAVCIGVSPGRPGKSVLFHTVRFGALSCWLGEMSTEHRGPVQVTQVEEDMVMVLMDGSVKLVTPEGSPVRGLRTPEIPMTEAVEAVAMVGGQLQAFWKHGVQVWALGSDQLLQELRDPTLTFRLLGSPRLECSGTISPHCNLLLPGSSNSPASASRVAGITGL

SMILES | pKi
CO[C@]1(C)C[C@H](OC(=O)Nc2cc3cc(-c4cnc5c(c4C)NCCO5)c(F)c(N)c3cn2)C1 [Compound 528a, (1s,3s)-3-Methoxy-3-methyl cyclobutyl (8-amino-7-fluoro-6-(8-methyl-2,3-dihydro-1H-pyrido[2,3-b][1,4]oxazin-7-yl)isoquinolin-3-yl)carbamate] | > 10.89
CC(=O)O[C@]1(C)C[C@H](OC(=O)Nc2cc3cc(-c4cnc5c(c4C)NCCO5)c(F)c(N)c3cn2)C1 [Compound 529b, (1s,3s)-3-(((8-Amino-7-fluoro-6-(8-methyl-2,3-dihydro-1H-pyrido[2,3-b][1,4]oxazin-7-yl)isoquinolin-3-yl)carbamoyl)oxy)-1-methylcyclobutyl acetate] | 10.72
Cc1c(-c2cc3cc(NC(=O)OC4CC5(C4)CN(CC(F)F)C5)ncc3c(N)c2F)cnc2c1NCCC2 [Compound 532, 2-(2,2-Difluoroethyl)-2-azaspiro[3.3]heptan-6-yl (8-amino-7-fluoro-6-(4-methyl-5,6,7,8-tetrahydro-1,5-naphthyridin-3-yl)isoquinolin-3-yl)carbamate] | 10.85
Cc1c(N)cncc1-c1cc2cc(NC(=O)O[C@H]3C[C@@H](C#N)C3)ncc2c(N)c1F [Compound 534a, (1s,3s)-3-Cyanocyclobutyl (8-amino-6-(5-amino-4-methylpyridin-3-yl)-7-fluoroisoquinolin-3-yl)carbamate] | 9.85
Cc1c(-c2cc3cc(NC(=O)O[C@@H]4CC[C@H]4C#N)ncc3c(N)c2F)cnc2c1NCCO2 [Compound 535b, (1R,2S)-2-Cyanocyclobutyl (8-amino-7-fluoro-6-(8-methyl-2,3-dihydro-1H-pyrido[2,3-b][1,4]oxazin-7-yl)isoquinolin-3-yl)carbamate] | 10.54
Cc1c(-c2cc3cc(NC(=O)O[C@H]4C[C@@H](CC#N)C4)ncc3c(N)c2F)cnc2c1NCCO2 [Compound 536a, (1r,3s)-3-(Cyanomethyl)cyclobutyl (8-amino-7-fluoro-6-(8-methyl-2,3-dihydro-1H-pyrido[2,3-b][1,4]oxazin-7-yl)isoquinolin-3-yl)carbamate] | > 10.89
Cc1c(-c2cc3cc(NC(=O)O[C@H]4C[C@@](C)(C#N)C4)ncc3c(N)c2F)cnc2c1NCCO2 [Compound 537a, (1s,3s)-3-Cyano-3-methylcyclobutyl (8-amino-7-fluoro-6-(8-methyl-2,3-dihydro-1H-pyrido[2,3-b][1,4]oxazin-7-yl)isoquinolin-3-yl)carbamate] | 10.82
Cc1c(-c2cc3cc(NC(=O)O[C@H]4C[C@](C)(C#N)C4)ncc3c(N)c2F)cnc2c1NCCO2 [Compound 537b, (1r,3r)-3-Cyano-3-methylcyclobutyl (8-amino-7-fluoro-6-(8-methyl-2,3-dihydro-1H-pyrido[2,3-b][1,4]oxazin-7-yl)isoquinolin-3-yl)carbamate] | > 10.89
CN[C@H]1C[C@H](OC(=O)Nc2cc3cc(-c4cnc5c(c4C)NCCO5)c(F)c(N)c3cn2)C1 [Compound 539a, (1r,3r)-3-(Methylamino)cyclobutyl (8-amino-7-fluoro-6-(8-methyl-2,3-dihydro-1H-pyrido[2,3-b][1,4]oxazin-7-yl)isoquinolin-3-yl)carbamate] | > 10.89
Cc1c(-c2cc3cc(NC(=O)OC4CN(C5CC5)C4)ncc3c(N)c2F)cnc2c1NCCO2 [Compound 540, 1-Cyclopropylazetidin-3-yl (8-amino-7-fluoro-6-(8-methyl-2,3-dihydro-1H-pyrido[2,3-b][1,4]oxazin-7-yl)isoquinolin-3-yl)carbamate] | 10.68
Cc1c(-c2cc3cc(NC(=O)O[C@H]4C[C@@H](F)C4)ncc3c(N)c2F)cnc2c1NCCO2 [Compound 541a, (1s,3s)-3-Fluorocyclobutyl (8-amino-7-fluoro-6-(8-methyl-2,3-dihydro-1H-pyrido[2,3-b][1,4]oxazin-7-yl)isoquinolin-3-yl)carbamate hydrochloride] | 10.85
Cc1c(-c2cc3cc(NC(=O)O[C@@H]4CC[C@@H]4O)ncc3c(N)c2F)cnc2c1NCCO2 [Compound 542b, (1R,2S)-2-Hydroxycyclobutyl (8-amino-7-fluoro-6-(8-methyl-2,3-dihydro-1H-pyrido[2,3-b][1,4]oxazin-7-yl)isoquinolin-3-yl)carbamate] | 10.11
Cc1c(-c2cc3cc(NC(=O)O[C@H]4[C@@H]5COC[C@@H]54)ncc3c(N)c2F)cnc2c1NCCO2 [Compound 543a, (1R,5S,6s)-3-oxabicyclo[3.1.0]hexan-6-yl (8-amino-7-fluoro-6-(8-methyl-2,3-dihydro-1H-pyrido[2,3-b][1,4]oxazin-7-yl)isoquinolin-3-yl)carbamate] | > 10.89
Cc1c(-c2cc3cc(NC(=O)O[C@@H]4[C@@H]5COC[C@@H]54)ncc3c(N)c2F)cnc2c1NCCO2 [Compound 543b, (1R,5S,6r)-3-oxabicyclo[3.1.0]hexan-6-yl (8-amino-7-fluoro-6-(8-methyl-2,3-dihydro-1H-pyrido[2,3-b][1,4]oxazin-7-yl)isoquinolin-3-yl)carbamate] | 10.08
Cc1c(-c2cc3cc(NC(=O)O[C@@H]4CCOC4)ncc3c(N)c2F)cnc2c1[C@H](O)CC2 [Compound 548b, (R)-tetrahydrofuran-3-yl (8-amino-7-fluoro-6-((R)-5-hydroxy-4-methyl-6,7-dihydro-5H-cyclopenta[b]pyridin-3-yl)isoquinolin-3-yl)carbamate] | 7.03
Cc1c(-c2cc3cc(NC(=O)O[C@H]4C[C@@H](C(C)(C)C#N)C4)ncc3c(N)c2F)cnc2c1NCCO2 [Compound 549a, (1s,3s)-3-(2-Cyanopropan-2-yl)cyclobutyl (8-amino-7-fluoro-6-(8-methyl-2,3-dihydro-1H-pyrido[2,3-b][1,4]oxazin-7-yl)isoquinolin-3-yl)carbamate] | > 10.89
Cc1c(-c2cc3cc(NC(=O)O[C@H]4C[C@H](C(C)(C)C#N)C4)ncc3c(N)c2F)cnc2c1NCCO2 [Compound 549b, (1r,3r)-3-(2-Cyanopropan-2-yl)cyclobutyl (8-amino-7-fluoro-6-(8-methyl-2,3-dihydro-1H-pyrido[2,3-b][1,4]oxazin-7-yl)isoquinolin-3-yl)carbamate] | > 10.89

Same assay, conditions: HPK1 Ki, ATP 1 mM

SMILES | pKi
Cc1c(-c2cc3cc(NC(=O)O[C@H]4CC[C@H]4O)ncc3c(N)c2F)cnc2c1NCCO2 [Compound 542a, (1S,2R)-2-Hydroxycyclobutyl (8-amino-7-fluoro-6-(8-methyl-2,3-dihydro-1H-pyrido[2,3-b][1,4]oxazin-7-yl)isoquinolin-3-yl)carbamate] | 9.48
Cc1c(-c2cc3cc(NC(=O)O[C@H]4CC[C@@H]4O)ncc3c(N)c2F)cnc2c1NCCO2 [Compound 542c, (1S,2S)-2-Hydroxycyclobutyl (8-amino-7-fluoro-6-(8-methyl-2,3-dihydro-1H-pyrido[2,3-b][1,4]oxazin-7-yl)isoquinolin-3-yl)carbamate hydrochloride] | 10.68
Cc1c(-c2cc3cc(NC(=O)O[C@@H]4CC[C@H]4O)ncc3c(N)c2F)cnc2c1NCCO2 [Compound 542d, (1R,2R)-2-Hydroxycyclobutyl (8-amino-7-fluoro-6-(8-methyl-2,3-dihydro-1H-pyrido[2,3-b][1,4]oxazin-7-yl)isoquinolin-3-yl)carbamate hydrochloride] | 10.85
Cc1c(-c2cc3cc(NC(=O)O[C@@H]4CCOC4)ncc3c(N)c2F)cnc2c1[C@@H](O)CC2 [Compound 548a, (R)-tetrahydrofuran-3-yl (8-amino-7-fluoro-6-((S)-5-hydroxy-4-methyl-6,7-dihydro-5H-cyclopenta[b]pyridin-3-yl)isoquinolin-3-yl)carbamate] | 8.77
